Reference: patent EP0908457B1, “3-(1,2-benzisothiazol- and isoxazol-5-Y1)-2,4(1H,3H)-pyrimidinedione or thione and 3-(1,2-benzisothiazol- and isoxazol-5-y1)-4(3H)-pyrimidinone or thione herbicidal agents” (BASF AKTIENGESELLSCHAFT, priority 1997, dated 1999)

Assays:
[1] = tested on: Echinochloa oryzoides (Ard.) Fritsch.; test: Preemergence weed control under flooded paddy conditions, ECHORC (Watergrass (Calif.)); type: in vivo; details: preemergence, flooded paddy, rated three to four weeks after treatment
Cyperus iria = test: Preemergence weed control under flooded paddy conditions, CYPIR (Rice Flatsedge); type: in vivo; details: preemergence, flooded paddy, rated three to four weeks after treatment
[2] = tested on: Cyperus serotinus, Rottb.; test: Preemergence weed control under flooded paddy conditions, CYPSE (Flatsedge); type: in vivo; details: preemergence, rated three to four weeks after treatment
[3] = tested on: Monochoria vaginalis, Presl.; test: Preemergence weed control under flooded paddy conditions, MOOVA (Monochoria); type: in vivo; details: preemergence, flooded paddy, rated three to four weeks after treatment
Sagittaria pygmaea, L. = test: Preemergence weed control under flooded paddy conditions, SAGPY (Arrowhead (Pygmaea)); type: in vivo; details: preemergence, flooded paddy, rated three to four weeks after treatment
[4] = tested on: Oryza sativa, (L.) Tebonnet; test: Rice tolerance to post-transplant applications under flooded paddy conditions (Example 187), ORYSAT (Rice, Tebonnet); details: rated three to four weeks after treatment
Note: meaning of each grade not given here.

## C=C(Cl)COC(=O)c1nsc2ccc(-n3c(=O)cc(C(F)(F)F)n(C)c3=O)cc12 [Example 386, 1,2-Benzisothiazole-3-carboxylic acid, 5-[3,6-dihydro-3-methyl-2,6-dioxo-4-(trifluoromethyl)-1(2H)-pyrimidinyl]-, 2-chloroallyl ester]
[1]; Rate 0.0320 kg/ha
  herbicidal effect rating, ECHORC: 0.0
[1]; Rate 0.0620 kg/ha
  herbicidal effect rating, ECHORC: 3.0
[1]; Rate 0.1250 kg/ha
  herbicidal effect rating, ECHORC: 4.0
[1]; Rate 0.2500 kg/ha
  herbicidal effect rating, ECHORC: 5.0
Cyperus iria; Rate 0.0320 kg/ha
  herbicidal effect rating, CYPIR: 7.0
Cyperus iria; Rate 0.0620 kg/ha
  herbicidal effect rating, CYPIR: 9.0
Cyperus iria; Rate 0.1250 kg/ha
  herbicidal effect rating, CYPIR: 9.0
Cyperus iria; Rate 0.2500 kg/ha
  herbicidal effect rating, CYPIR: 9.0
[2]; Rate 0.0320 kg/ha
  herbicidal effect rating, CYPSE: 3.0
[2]; Rate 0.0620 kg/ha
  herbicidal effect rating, CYPSE: 7.0
[2]; Rate 0.1250 kg/ha
  herbicidal effect rating, CYPSE: 7.0
[2]; Rate 0.2500 kg/ha
  herbicidal effect rating, CYPSE: 7.0
[3]; Rate 0.0320 kg/ha
  herbicidal effect rating, MOOVA: 9.0
[3]; Rate 0.0620 kg/ha
  herbicidal effect rating, MOOVA: 9.0
[3]; Rate 0.1250 kg/ha
  herbicidal effect rating, MOOVA: 9.0
[3]; Rate 0.2500 kg/ha
  herbicidal effect rating, MOOVA: 9.0
Sagittaria pygmaea, L.; Rate 0.0320 kg/ha
  herbicidal effect rating, SAGPY: 4.0
Sagittaria pygmaea, L.; Rate 0.0620 kg/ha
  herbicidal effect rating, SAGPY: 7.0
Sagittaria pygmaea, L.; Rate 0.1250 kg/ha
  herbicidal effect rating, SAGPY: 9.0
Sagittaria pygmaea, L.; Rate 0.2500 kg/ha
  herbicidal effect rating, SAGPY: 9.0
[4]; Rate 0.0320 kg/ha
  herbicidal effect rating ORYSAT: 5.0
[4]; Rate 0.0620 kg/ha
  herbicidal effect rating ORYSAT: 5.0
[4]; Rate 0.1250 kg/ha
  herbicidal effect rating ORYSAT: 5.0
[4]; Rate 0.2500 kg/ha
  herbicidal effect rating ORYSAT: 5.0

## CC(=O)NCCOC(=O)c1nsc2ccc(-n3c(=O)cc(C(F)(F)F)n(C)c3=O)cc12 [Example 387, 1,2-Benzisothiazole-3-carboxylic acid, 5-[3,6-dihydro-3-methyl-2,6-dioxo-4-(trifluoromethyl)-1(2H)-pyrimidinyl]-, 2-acetamidoethyl ester]
[1]; Rate 0.0320 kg/ha
  herbicidal effect rating, ECHORC: 0.0
[1]; Rate 0.0620 kg/ha
  herbicidal effect rating, ECHORC: 0.0
[1]; Rate 0.1250 kg/ha
  herbicidal effect rating, ECHORC: 0.0
[1]; Rate 0.2500 kg/ha
  herbicidal effect rating, ECHORC: 3.0
Cyperus iria; Rate 0.0320 kg/ha
  herbicidal effect rating, CYPIR: 0.0
Cyperus iria; Rate 0.0620 kg/ha
  herbicidal effect rating, CYPIR: 5.0
Cyperus iria; Rate 0.1250 kg/ha
  herbicidal effect rating, CYPIR: 6.0
Cyperus iria; Rate 0.2500 kg/ha
  herbicidal effect rating, CYPIR: 7.0
[2]; Rate 0.0320 kg/ha
  herbicidal effect rating, CYPSE: 2.0
[2]; Rate 0.0620 kg/ha
  herbicidal effect rating, CYPSE: 5.0
[2]; Rate 0.1250 kg/ha
  herbicidal effect rating, CYPSE: 5.0
[2]; Rate 0.2500 kg/ha
  herbicidal effect rating, CYPSE: 5.0
[3]; Rate 0.0320 kg/ha
  herbicidal effect rating, MOOVA: 4.0
[3]; Rate 0.0620 kg/ha
  herbicidal effect rating, MOOVA: 9.0
[3]; Rate 0.1250 kg/ha
  herbicidal effect rating, MOOVA: 9.0
[3]; Rate 0.2500 kg/ha
  herbicidal effect rating, MOOVA: 9.0
Sagittaria pygmaea, L.; Rate 0.0320 kg/ha
  herbicidal effect rating, SAGPY: 3.0
Sagittaria pygmaea, L.; Rate 0.0620 kg/ha
  herbicidal effect rating, SAGPY: 4.0
Sagittaria pygmaea, L.; Rate 0.1250 kg/ha
  herbicidal effect rating, SAGPY: 5.0
Sagittaria pygmaea, L.; Rate 0.2500 kg/ha
  herbicidal effect rating, SAGPY: 6.0
[4]; Rate 0.0320 kg/ha
  herbicidal effect rating ORYSAT: 0.0
[4]; Rate 0.0620 kg/ha
  herbicidal effect rating ORYSAT: 0.0
[4]; Rate 0.1250 kg/ha
  herbicidal effect rating ORYSAT: 2.0
[4]; Rate 0.2500 kg/ha
  herbicidal effect rating ORYSAT: 2.0

## CCCCCCCOC(=O)c1nsc2ccc(-n3c(=O)cc(C(F)(F)F)n(C)c3=O)cc12 [Example 388, 1,2-Benzisothiazole-3-carboxylic acid, 5-[3,6-dihydro-3-methyl-2,6-dioxo-4-(trifluoromethyl)-1(2H)-pyrimidinyl]-, heptyl ester]
[1]; Rate 0.0320 kg/ha
  herbicidal effect rating, ECHORC: 0.0
[1]; Rate 0.0620 kg/ha
  herbicidal effect rating, ECHORC: 2.0
[1]; Rate 0.1250 kg/ha
  herbicidal effect rating, ECHORC: 5.0
[1]; Rate 0.2500 kg/ha
  herbicidal effect rating, ECHORC: 6.0
Cyperus iria; Rate 0.0320 kg/ha
  herbicidal effect rating, CYPIR: 4.0
Cyperus iria; Rate 0.0620 kg/ha
  herbicidal effect rating, CYPIR: 7.0
Cyperus iria; Rate 0.1250 kg/ha
  herbicidal effect rating, CYPIR: 7.0
Cyperus iria; Rate 0.2500 kg/ha
  herbicidal effect rating, CYPIR: 9.0
[2]; Rate 0.0320 kg/ha
  herbicidal effect rating, CYPSE: 6.0
[2]; Rate 0.2500 kg/ha
  herbicidal effect rating, CYPSE: 6.0
[3]; Rate 0.0320 kg/ha
  herbicidal effect rating, MOOVA: 9.0
[3]; Rate 0.0620 kg/ha
  herbicidal effect rating, MOOVA: 9.0
[3]; Rate 0.1250 kg/ha
  herbicidal effect rating, MOOVA: 9.0
[3]; Rate 0.2500 kg/ha
  herbicidal effect rating, MOOVA: 9.0
Sagittaria pygmaea, L.; Rate 0.0320 kg/ha
  herbicidal effect rating, SAGPY: 3.0
Sagittaria pygmaea, L.; Rate 0.0620 kg/ha
  herbicidal effect rating, SAGPY: 4.0
Sagittaria pygmaea, L.; Rate 0.1250 kg/ha
  herbicidal effect rating, SAGPY: 4.0
Sagittaria pygmaea, L.; Rate 0.2500 kg/ha
  herbicidal effect rating, SAGPY: 7.0
[4]; Rate 0.0320 kg/ha
  herbicidal effect rating ORYSAT: 3.0
[4]; Rate 0.0620 kg/ha
  herbicidal effect rating ORYSAT: 4.0
[4]; Rate 0.1250 kg/ha
  herbicidal effect rating ORYSAT: 4.0
[4]; Rate 0.2500 kg/ha
  herbicidal effect rating ORYSAT: 6.0
